Source: ChEMBL document CHEMBL3217671, “l-Penicillamine is a mechanism-based inhibitor of serine palmitoyltransferase by forming a pyridoxal-5-phosphate-thiazolidine adduct” (Medchemcomm, 2012)
The source made the active and inactive calls. The calls are words filed in the database; no cut-off is given here.

How the values were obtained:
[1] = target: T1, Serine palmitoyltransferase (Sphingomonas paucimobilis) (UniProt Q93UV0); experiment: Inhibition of Sphingomonas paucimobilis recombinant SPT expressed in Escherichia coli BL21(DE3) assessed as remaining activity at 5 mM after 30 mins by dialysis technique relative to control
T1 sequence (whole entry): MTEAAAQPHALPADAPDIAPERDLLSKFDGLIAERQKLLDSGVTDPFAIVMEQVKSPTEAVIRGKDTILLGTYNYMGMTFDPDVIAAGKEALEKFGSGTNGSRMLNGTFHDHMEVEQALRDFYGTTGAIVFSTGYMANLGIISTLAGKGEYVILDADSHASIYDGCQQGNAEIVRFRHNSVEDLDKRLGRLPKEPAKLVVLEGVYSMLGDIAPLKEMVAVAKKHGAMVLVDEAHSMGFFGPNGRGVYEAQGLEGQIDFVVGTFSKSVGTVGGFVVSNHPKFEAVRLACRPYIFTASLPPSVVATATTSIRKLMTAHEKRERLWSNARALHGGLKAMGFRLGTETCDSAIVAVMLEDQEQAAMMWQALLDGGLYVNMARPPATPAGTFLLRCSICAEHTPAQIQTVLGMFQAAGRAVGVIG

[2] = target: T1, Serine palmitoyltransferase (Sphingomonas paucimobilis); experiment: Reversible inhibition of Sphingomonas paucimobilis recombinant SPT expressed in Escherichia coli BL21(DE3) assessed as restoration of enzyme activity at 5 mM after 30 mins by dialysis technique in presence of PLP relative to control; parameters: scale not given: the % may be the effect or the level left
[3] = target: T1, Serine palmitoyltransferase (Sphingomonas paucimobilis); experiment: Binding affinity to Sphingomonas paucimobilis recombinant SPT expressed in Escherichia coli BL21(DE3) at 10 mM by UV-vis spectroscopic analysis; conditions: TDE = time-dependent effect
[4] = target: T1, Serine palmitoyltransferase (Sphingomonas paucimobilis); experiment: Reversible inhibition of Sphingomonas paucimobilis recombinant SPT expressed in Escherichia coli BL21(DE3) at 1 mM after 1 to 60 mins by UV-vis spectroscopic analysis in presence of Tris-HCl buffer
[5] = target: T1, Serine palmitoyltransferase (Sphingomonas paucimobilis); experiment: Reversible inhibition of Sphingomonas paucimobilis recombinant SPT expressed in Escherichia coli BL21(DE3) at 1 mM after 1 to 60 mins by UV-vis spectroscopic analysis in presence of potassium phosphate buffer
[6] = target: T1, Serine palmitoyltransferase (Sphingomonas paucimobilis); experiment: Binding affinity to Sphingomonas paucimobilis recombinant SPT expressed in Escherichia coli BL21(DE3) at 10 mM after 30 mins by UV-vis spectroscopic analysis
[7] = target: T1, Serine palmitoyltransferase (Sphingomonas paucimobilis); experiment: Inhibition of Sphingomonas paucimobilis recombinant SPT expressed in Escherichia coli BL21(DE3) by membrane filtration assay
[8] = target: T1, Serine palmitoyltransferase (Sphingomonas paucimobilis); experiment: Inhibition of Sphingomonas paucimobilis recombinant SPT expressed in Escherichia coli BL21(DE3) by dialysis technique in presence of PLP and potassium phosphate buffer
[9] = target: T1, Serine palmitoyltransferase (Sphingomonas paucimobilis); experiment: Binding affinity to Sphingomonas paucimobilis recombinant SPT expressed in Escherichia coli BL21(DE3) at 5 mM by ESI-FT-ICR mass spectrometric analysis

Activity [1] [%] | Activity [2] [%] | Activity [3] | inhibition [4] | inhibition [5] | Activity [6] | inhibition [7] | inhibition [8] | Activity [9] | Compound
22 | 76 | – | – | – | – | – | – | – | N[C@H](CS)C(=O)O
34 | 57 | – | – | – | – | – | – | – | CC(C)(S)[C@@H](N)C(=O)O
24 | 83 | tde | Active | inactive | – | – | – | – | N[C@@H](CS)C(=O)O
3 | 80 | – | – | – | Active | Active | Active | Active | CC(C)(S)[C@H](N)C(=O)O
